Measured values from patent US20260116920A1, “HUMAN TRANSFERRIN RECEPTOR BINDING PEPTIDE” (PEPTIDREAM INC., priority 2021, published 2026).
Positions of bridges follow the written chain, without caps; N, C: chain ends. Non-standard residues stand in square brackets, D forms with d. Residues, ends and D or L forms follow the SMILES beside them. *: point of attachment. Phe(3-COOH) = N[C@@H](Cc1cccc(C(=O)O)c1)C(=O)O; NH(CH2CH2O)8Me = COCCOCCOCCOCCOCCOCCOCCOCCN*; NMePhe(3-Cl) = CN[C@@H](Cc1cccc(Cl)c1)C(=O)O; 3Pal(6-NH2) = Nc1ccc(C[C@H](N)C(=O)O)cn1; NMeY = CN[C@@H](Cc1ccc(O)cc1)C(=O)O; 3Pal = N[C@@H](Cc1cccnc1)C(=O)O; 4Pal = N[C@@H](Cc1ccncc1)C(=O)O; PEG4 = NCCOCCOCCOCCOCCC(=O)O; Carboxymethyl = O=C(O)C*

Target: T1, human transferrin receptor (hTfR) (Homo sapiens, UniProt P02786)
T1 construct: made in house
T1 sequence (P02786 89-760 limits assumed): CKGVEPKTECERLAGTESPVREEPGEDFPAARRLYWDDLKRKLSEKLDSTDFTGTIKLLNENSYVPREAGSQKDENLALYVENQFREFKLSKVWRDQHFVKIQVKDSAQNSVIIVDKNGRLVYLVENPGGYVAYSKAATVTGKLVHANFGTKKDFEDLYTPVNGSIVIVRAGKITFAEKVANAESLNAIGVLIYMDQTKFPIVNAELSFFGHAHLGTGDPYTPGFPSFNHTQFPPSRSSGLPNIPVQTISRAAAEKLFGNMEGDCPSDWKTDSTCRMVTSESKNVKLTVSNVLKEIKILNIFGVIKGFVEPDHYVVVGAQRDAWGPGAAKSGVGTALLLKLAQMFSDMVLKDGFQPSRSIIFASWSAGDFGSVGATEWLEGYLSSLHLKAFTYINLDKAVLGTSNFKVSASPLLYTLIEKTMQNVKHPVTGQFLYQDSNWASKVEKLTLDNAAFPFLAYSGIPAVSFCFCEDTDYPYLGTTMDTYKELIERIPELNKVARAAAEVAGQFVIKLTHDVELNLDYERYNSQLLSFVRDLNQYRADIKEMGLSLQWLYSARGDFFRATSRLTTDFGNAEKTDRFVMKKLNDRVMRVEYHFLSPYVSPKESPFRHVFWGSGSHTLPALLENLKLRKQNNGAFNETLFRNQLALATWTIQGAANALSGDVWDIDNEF
Assay: Evaluation of molecular interaction between transferrin receptor (hTfR) and peptide using surface plasmon resonance (SPR)
Assay type: binding
Conditions: surface plasmon resonance, binding to hTfR; KD class symbol; read-out: SPR (KD value)
How it was run: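 KD values are derived by least-squares fitting of single-cycle kinetic sensorgrams. Peptide series (5–100 nM) flows over recombinant hTfR dimer immobilized on a Ni-NTA chip by EDC/NHS coupling, in pH 8.0 HEPES buffer containing 0.1% BSA and 1.0% DMSO.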

Kd, 0.001 to 0.1 µM:
CC[C@H](C)[C@@H]1NC(=O)[C@H](Cc2ccc(OCC(=O)O)cc2)NC(=O)[C@H](Cc2ccc(O)cc2)NC(=O)[C@H](CC(N)=O)NC(=O)[C@H](Cc2c[nH]c3ccccc23)NC(=O)[C@H](C(C)C)NC(=O)[C@H](Cc2cccc(Cl)c2)N(C)C(=O)[C@H](C(C)C)NC(=O)[C@H](C)NC(=O)CSC[C@@H](C(=O)NCCOCCOCCOCCOCCC(N)=O)NC(=O)[C@H](Cc2ccc(O)cc2)N(C)C(=O)[C@H](Cc2ccccc2)NC(=O)[C@H](CCC(=O)NCCOCCOCCOCCOCCOCCOCCOCCOC)NC(=O)[C@H](CCCNC(=N)N)NC(=O)[C@H]([C@@H](C)CC)NC1=O [compound 89]
CC[C@H](C)[C@@H]1NC(=O)[C@H](Cc2ccc(OC)cc2)NC(=O)[C@H](Cc2ccc(O)cc2)NC(=O)[C@H](CC(N)=O)NC(=O)[C@H](Cc2c[nH]c3ccccc23)NC(=O)[C@H](C(C)C)NC(=O)[C@H](Cc2cccc(Cl)c2)N(C)C(=O)[C@H](C(C)C)NC(=O)[C@H](C)NC(=O)CSC[C@@H](C(=O)NCCOCCOCCOCCOCCC(N)=O)NC(=O)[C@H](Cc2ccc(O)cc2)N(C)C(=O)[C@H](Cc2cccc(C(=O)O)c2)NC(=O)[C@H](CCC(=O)NCCOCCOCCOCCOCCOCCOCCOCCOC)NC(=O)[C@H](CCCNC(=N)N)NC(=O)[C@H]([C@@H](C)CC)NC1=O [compound 90] ({CH2CO}-AV[NMePhe(3-Cl)]VWNYY(Me)IIRE(NH(CH2CH2O)8Me)[Phe(3-COOH)][NMeY]C[PEG4]-NH2; thioether N-15)
CC[C@H](C)[C@@H]1NC(=O)[C@H](Cc2ccc(OCC(=O)O)cc2)NC(=O)[C@H](Cc2ccc(N)nc2)NC(=O)[C@H](CC(N)=O)NC(=O)[C@H](Cc2c[nH]c3ccccc23)NC(=O)[C@H](C(C)C)NC(=O)[C@H](Cc2cccc(Cl)c2)N(C)C(=O)[C@H](C(C)C)NC(=O)[C@H](C)NC(=O)CSC[C@@H](C(=O)NCCOCCOCCOCCOCCC(N)=O)NC(=O)[C@H](Cc2ccc(O)cc2)N(C)C(=O)[C@H](Cc2cccc(C(=O)O)c2)NC(=O)[C@H](CCCNC(=N)N)NC(=O)[C@H](CCCNC(=N)N)NC(=O)[C@H]([C@@H](C)CC)NC1=O [compound 91] ({CH2CO}-AV[NMePhe(3-Cl)]VWN[3Pal(6-NH2)]Y(Carboxymethyl)IIRR[Phe(3-COOH)][NMeY]C[PEG4]-NH2; thioether N-15)
CC[C@H](C)[C@@H]1NC(=O)[C@H](Cc2ccc(OCC(=O)O)cc2)NC(=O)[C@H](Cc2ccc(N)nc2)NC(=O)[C@H](CC(N)=O)NC(=O)[C@H](Cc2c[nH]c3ccccc23)NC(=O)[C@H](C(C)C)NC(=O)[C@H](Cc2cccc(Cl)c2)N(C)C(=O)[C@H](C(C)C)NC(=O)[C@H](C)NC(=O)CSC[C@@H](C(=O)NCCOCCOCCOCCOCCC(N)=O)NC(=O)[C@H](Cc2ccc(O)cc2)N(C)C(=O)[C@H](Cc2ccncc2)NC(=O)[C@H](CCCNC(=N)N)NC(=O)[C@H](CCCNC(=N)N)NC(=O)[C@H]([C@@H](C)CC)NC1=O [compound 92]
CC[C@H](C)[C@@H]1NC(=O)[C@H](Cc2cccnc2)NC(=O)[C@H](Cc2ccc(O)cc2)NC(=O)[C@H](CC(N)=O)NC(=O)[C@H](Cc2c[nH]c3ccccc23)NC(=O)[C@H](C(C)C)NC(=O)[C@H](Cc2cccc(Cl)c2)N(C)C(=O)[C@H](C(C)C)NC(=O)[C@H](C)NC(=O)CSC[C@@H](C(=O)NCCOCCOCCOCCOCCC(N)=O)NC(=O)[C@H](Cc2ccc(O)cc2)N(C)C(=O)[C@H](Cc2cccc(C(=O)O)c2)NC(=O)[C@H](CCC(=O)NCCOCCOCCOCCOCCOCCOCCOCCOC)NC(=O)[C@H](CCCNC(=N)N)NC(=O)[C@H]([C@@H](C)CC)NC1=O [compound 93] ({CH2CO}-AV[NMePhe(3-Cl)]VWNY[3Pal]IIRE(NH(CH2CH2O)8Me)[Phe(3-COOH)][NMeY]C[PEG4]-NH2; thioether N-15)
CC[C@H](C)[C@@H]1NC(=O)[C@H](Cc2cccnc2)NC(=O)[C@H](Cc2ccc(O)cc2)NC(=O)[C@H](CC(N)=O)NC(=O)[C@H](Cc2c[nH]c3ccccc23)NC(=O)[C@H](C(C)C)NC(=O)[C@H](Cc2cccc(Cl)c2)N(C)C(=O)[C@H](C(C)C)NC(=O)[C@H](C)NC(=O)CSC[C@@H](C(=O)NCCOCCOCCOCCOCCC(N)=O)NC(=O)[C@H](Cc2ccc(O)cc2)N(C)C(=O)[C@H](Cc2ccncc2)NC(=O)[C@H](CCC(=O)NCCOCCOCCOCCOCCOCCOCCOCCOC)NC(=O)[C@H](CCCNC(=N)N)NC(=O)[C@H]([C@@H](C)CC)NC1=O [compound 94] ({CH2CO}-AV[NMePhe(3-Cl)]VWNY[3Pal]IIRE(NH(CH2CH2O)8Me)[4Pal][NMeY]C[PEG4]-NH2; thioether N-15)
CC[C@H](C)[C@@H]1NC(=O)[C@H](Cc2ccc(OCC(=O)O)cc2)NC(=O)[C@H](Cc2ccc(O)cc2)NC(=O)[C@H](CC(N)=O)NC(=O)[C@H](Cc2c[nH]c3ccccc23)NC(=O)[C@H](C(C)C)NC(=O)[C@H](Cc2cccc(Cl)c2)N(C)C(=O)[C@H](C(C)C)NC(=O)[C@H](C)NC(=O)CSC[C@@H](C(=O)NCCOCCOCCOCCOCCC(N)=O)NC(=O)[C@H](Cc2ccc(O)cc2)N(C)C(=O)[C@H](Cc2cccc(C(=O)O)c2)NC(=O)[C@H](CCC(=O)NCCOCCOCCOCCOCCOCCOCCOCCOC)NC(=O)[C@H](CCCNC(=N)N)NC(=O)[C@H]([C@@H](C)CC)NC1=O [compound 95] ({CH2CO}-AV[NMePhe(3-Cl)]VWNYY(Carboxymethyl)IIRE(NH(CH2CH2O)8Me)[Phe(3-COOH)][NMeY]C[PEG4]-NH2; thioether N-15)
CC[C@H](C)[C@@H]1NC(=O)[C@H](Cc2ccc(OCC(=O)O)cc2)NC(=O)[C@H](Cc2ccc(O)cc2)NC(=O)[C@H](CC(N)=O)NC(=O)[C@H](Cc2c[nH]c3ccccc23)NC(=O)[C@H](C(C)C)NC(=O)[C@H](Cc2cccc(Cl)c2)N(C)C(=O)[C@H](C(C)C)NC(=O)[C@H](C)NC(=O)CSC[C@@H](C(=O)NCCOCCOCCOCCOCCC(N)=O)NC(=O)[C@H](Cc2ccc(O)cc2)N(C)C(=O)[C@H](Cc2ccncc2)NC(=O)[C@H](CCC(=O)NCCOCCOCCOCCOCCOCCOCCOCCOC)NC(=O)[C@H](CCCNC(=N)N)NC(=O)[C@H]([C@@H](C)CC)NC1=O [compound 96] ({CH2CO}-AV[NMePhe(3-Cl)]VWNYY(Carboxymethyl)IIRE(NH(CH2CH2O)8Me)[4Pal][NMeY]C[PEG4]-NH2; thioether N-15)
CC[C@H](C)[C@@H]1NC(=O)[C@H](Cc2cccnc2)NC(=O)[C@H](Cc2ccc(N)nc2)NC(=O)[C@H](CC(N)=O)NC(=O)[C@H](Cc2c[nH]c3ccccc23)NC(=O)[C@H](C(C)C)NC(=O)[C@H](Cc2cccc(Cl)c2)N(C)C(=O)[C@H](C(C)C)NC(=O)[C@H](C)NC(=O)CSC[C@@H](C(=O)NCCOCCOCCOCCOCCC(N)=O)NC(=O)[C@H](Cc2ccc(O)cc2)N(C)C(=O)[C@H](Cc2cccc(C(=O)O)c2)NC(=O)[C@H](CCC(=O)NCCOCCOCCOCCOCCOCCOCCOCCOC)NC(=O)[C@H](CCCNC(=N)N)NC(=O)[C@H]([C@@H](C)CC)NC1=O [compound 97] ({CH2CO}-AV[NMePhe(3-Cl)]VWN[3Pal(6-NH2)][3Pal]IIRE(NH(CH2CH2O)8Me)[Phe(3-COOH)][NMeY]C[PEG4]-NH2; thioether N-15)
CC[C@H](C)[C@@H]1NC(=O)[C@H](Cc2cccnc2)NC(=O)[C@H](Cc2ccc(N)nc2)NC(=O)[C@H](CC(N)=O)NC(=O)[C@H](Cc2c[nH]c3ccccc23)NC(=O)[C@H](C(C)C)NC(=O)[C@H](Cc2cccc(Cl)c2)N(C)C(=O)[C@H](C(C)C)NC(=O)[C@H](C)NC(=O)CSC[C@@H](C(=O)NCCOCCOCCOCCOCCC(N)=O)NC(=O)[C@H](Cc2ccc(O)cc2)N(C)C(=O)[C@H](Cc2ccncc2)NC(=O)[C@H](CCC(=O)NCCOCCOCCOCCOCCOCCOCCOCCOC)NC(=O)[C@H](CCCNC(=N)N)NC(=O)[C@H]([C@@H](C)CC)NC1=O [compound 98] ({CH2CO}-AV[NMePhe(3-Cl)]VWN[3Pal(6-NH2)][3Pal]IIRE(NH(CH2CH2O)8Me)[4Pal][NMeY]C[PEG4]-NH2; thioether N-15)
CC[C@H](C)[C@@H]1NC(=O)[C@H](Cc2ccc(OCC(=O)O)cc2)NC(=O)[C@H](Cc2ccc(N)nc2)NC(=O)[C@H](CC(N)=O)NC(=O)[C@H](Cc2c[nH]c3ccccc23)NC(=O)[C@H](C(C)C)NC(=O)[C@H](Cc2cccc(Cl)c2)N(C)C(=O)[C@H](C(C)C)NC(=O)[C@H](C)NC(=O)CSC[C@@H](C(=O)NCCOCCOCCOCCOCCC(N)=O)NC(=O)[C@H](Cc2ccc(O)cc2)N(C)C(=O)[C@H](Cc2cccc(C(=O)O)c2)NC(=O)[C@H](CCC(=O)NCCOCCOCCOCCOCCOCCOCCOCCOC)NC(=O)[C@H](CCCNC(=N)N)NC(=O)[C@H]([C@@H](C)CC)NC1=O [compound 99] ({CH2CO}-AV[NMePhe(3-Cl)]VWN[3Pal(6-NH2)]Y(Carboxymethyl)IIRE(NH(CH2CH2O)8Me)[Phe(3-COOH)][NMeY]C[PEG4]-NH2; thioether N-15)
CC[C@H](C)[C@@H]1NC(=O)[C@H](Cc2ccc(OCC(=O)O)cc2)NC(=O)[C@H](Cc2ccc(N)nc2)NC(=O)[C@H](CC(N)=O)NC(=O)[C@H](Cc2c[nH]c3ccccc23)NC(=O)[C@H](C(C)C)NC(=O)[C@H](Cc2cccc(Cl)c2)N(C)C(=O)[C@H](C(C)C)NC(=O)[C@H](C)NC(=O)CSC[C@@H](C(=O)NCCOCCOCCOCCOCCC(N)=O)NC(=O)[C@H](Cc2ccc(O)cc2)N(C)C(=O)[C@H](Cc2ccncc2)NC(=O)[C@H](CCC(=O)NCCOCCOCCOCCOCCOCCOCCOCCOC)NC(=O)[C@H](CCCNC(=N)N)NC(=O)[C@H]([C@@H](C)CC)NC1=O [compound 100] ({CH2CO}-AV[NMePhe(3-Cl)]VWN[3Pal(6-NH2)]Y(Carboxymethyl)IIRE(NH(CH2CH2O)8Me)[4Pal][NMeY]C[PEG4]-NH2; thioether N-15)
CC[C@H](C)[C@@H]1NC(=O)[C@H](Cc2ccc(OCC(=O)O)cc2)NC(=O)[C@H](Cc2ccc(O)cc2)NC(=O)[C@H](CC(N)=O)NC(=O)[C@H](Cc2cn(CC(=O)O)c3ccccc23)NC(=O)[C@H](C(C)C)NC(=O)[C@H](Cc2cccc(Cl)c2)N(C)C(=O)[C@H](C(C)C)NC(=O)[C@H](C)NC(=O)CSC[C@@H](C(=O)NCCOCCOCCOCCOCCC(N)=O)NC(=O)[C@H](Cc2ccc(O)cc2)N(C)C(=O)[C@H](Cc2ccccc2)NC(=O)[C@H](CCCNC(=N)N)NC(=O)[C@H](CCC(=O)NCCOCCOCCOCCOCCOCCOCCOCCOC)NC(=O)[C@H]([C@@H](C)CC)NC1=O [compound 101]
